From paper PMC8397948, “Effect of Selected Antidepressants on Placental Homeostasis of Serotonin: Maternal and Fetal Perspectives” (Pharmaceutics, 2021)
Counter-ions that a name gives are not always drawn.

Tests used:
[1] = pregnant women or women; read-out: Cmax (maximum steady-state plasma concentration); cited from earlier work
OCT3 [2] = biological target: T1, OCT3 (Rattus norvegicus, UniProt O88446); assay: In situ open-circuit perfusion of rat term placenta: 5-HT extraction from fetal circulation; assay type: in vivo
T1 sequence (O88446 1-551): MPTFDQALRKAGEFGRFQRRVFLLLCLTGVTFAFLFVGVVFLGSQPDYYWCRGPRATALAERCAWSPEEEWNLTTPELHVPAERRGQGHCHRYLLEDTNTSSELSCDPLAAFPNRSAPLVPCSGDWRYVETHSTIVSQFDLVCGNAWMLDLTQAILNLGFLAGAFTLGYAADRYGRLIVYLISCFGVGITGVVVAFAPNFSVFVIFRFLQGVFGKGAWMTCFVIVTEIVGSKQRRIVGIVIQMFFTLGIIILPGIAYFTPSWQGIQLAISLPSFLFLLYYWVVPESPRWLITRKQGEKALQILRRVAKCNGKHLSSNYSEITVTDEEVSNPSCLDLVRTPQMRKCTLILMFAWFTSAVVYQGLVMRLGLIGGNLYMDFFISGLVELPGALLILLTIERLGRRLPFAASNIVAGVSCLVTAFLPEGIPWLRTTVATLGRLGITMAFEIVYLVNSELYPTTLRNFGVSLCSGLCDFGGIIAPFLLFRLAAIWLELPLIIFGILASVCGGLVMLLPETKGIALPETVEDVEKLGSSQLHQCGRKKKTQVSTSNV

OCT3 [3] = biological target: T2, OCT3 (Homo sapiens, UniProt O75751); assay: [3H]5-HT uptake by basal membrane (BM) vesicles from human term placenta; assay type: biochemical; details: 100 nM [3H]5-HT, 10 min preincubation, room temperature, n ≥ 4, read-out: IC50 BM (OCT3-mediated 5-HT uptake)
T2 construct: MVM and BM vesicles were used to evaluate the effects of antidepressants on SERT- and OCT3-mediated uptake of 5-HT, respectively; from tissue; host or cells: human term placenta, basal membrane (BM) vesicles
T2 sequence (O75751 1-556): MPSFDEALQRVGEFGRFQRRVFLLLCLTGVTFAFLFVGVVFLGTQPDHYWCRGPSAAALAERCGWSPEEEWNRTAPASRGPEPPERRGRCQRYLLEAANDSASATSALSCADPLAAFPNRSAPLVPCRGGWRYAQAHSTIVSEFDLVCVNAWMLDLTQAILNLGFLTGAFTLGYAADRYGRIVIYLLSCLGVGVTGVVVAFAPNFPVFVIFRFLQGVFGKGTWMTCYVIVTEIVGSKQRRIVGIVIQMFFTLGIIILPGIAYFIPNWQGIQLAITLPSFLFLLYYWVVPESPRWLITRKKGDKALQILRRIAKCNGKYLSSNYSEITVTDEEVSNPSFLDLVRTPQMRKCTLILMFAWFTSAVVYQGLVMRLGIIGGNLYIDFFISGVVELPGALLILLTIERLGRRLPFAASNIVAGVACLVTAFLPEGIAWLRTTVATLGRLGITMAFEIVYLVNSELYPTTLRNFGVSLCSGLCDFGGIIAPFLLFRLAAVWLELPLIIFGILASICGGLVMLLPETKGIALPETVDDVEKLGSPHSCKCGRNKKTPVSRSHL

[4] = Published plasma concentrations and fetal-to-maternal ratios in (pregnant) women; assay type: in vivo, human; details: matches Ca x F/M ratio of published values
[5] = 1 µM (therapeutic concentration), fetal sex not considered
[6] = 100 µM antidepressant, 1 nM [3H]5-HT, both fetal sexes together, vs control
[7] = 100 µM antidepressant, male placentas

Row | Effect on placental extraction of 5-HT from fetal circulation (OCT3 [2]; [5]) | Effect on placental extraction of 5-HT from fetal circulation (OCT3 [2]; [6]) | SMILES | Cmax [1] | Effect on 5-HT extraction from circulation of male fetuses (OCT3 [2]; [7]) | further results
1 | no significant inhibition | significantly decreased | CN(C)CCCC1(c2ccc(F)cc2)OCc2cc(C#N)ccc21 (centres unmarked) [Citalopram, citalopram hydrobromide] | 1200 nM |  | 
2 |  |  | CNCCC(Oc1ccc(C(F)(F)F)cc1)c1ccccc1 (centres unmarked) [Fluoxetine, fluoxetine hydrochloride] |  | susceptible to inhibition | 
3 | no significant inhibition | significantly decreased | COCCCC/C(=N\OCCN)c1ccc(C(F)(F)F)cc1 [Fluvoxamine, fluvoxamine maleate] | 1300 nM | susceptible to inhibition | IC50 (OCT3 [3]): 15.2 nM; Ca;fetal (average fetal plasma concentration) [4]: 348 nM
4 |  |  | CN[C@H]1CC[C@@H](c2ccc(Cl)c(Cl)c2)c2ccccc21 [Sertraline, sertraline hydrochloride] |  | susceptible to inhibition | 
5 |  |  | COc1ccc(C(CN(C)C)C2(O)CCCCC2)cc1 (centres unmarked) [Venlafaxine, venlafaxine hydrochloride] |  | susceptible to inhibition | 
6 |  |  | CCN1/C(=C/c2ccc3ccccc3[n+]2CC)C=Cc2ccccc21.[I-] [decynium-22] |  |  | Effect of model OCT3 inhibitor on 5-HT extraction from fetal circulation (OCT3 [2]; 10 µM decynium-22): sensitive to co-administration of decynium-22

Row | SMILES | Effect on placental extraction of 5-HT from fetal circulation (OCT3 [2]; [5]) | Effect on placental extraction of 5-HT from fetal circulation (OCT3 [2]; [6]) | Cmax [1] | Effect on 5-HT extraction from circulation of male fetuses (OCT3 [2]; [7]) | further results
7 | Fc1ccc([C@@H]2CCNC[C@H]2COc2ccc3c(c2)OCO3)cc1 [Paroxetine, paroxetine hydrochloride] | no significant inhibition | significantly decreased | 1000 nM | susceptible to inhibition | IC50 (OCT3 [3]): 4.39 nM; Effect on 5-HT extraction from fetal circulation in male placentas (OCT3 [2]; 1 µM (therapeutic concentration), male placentas): potent inhibitor in males; Effect on 5-HT extraction from circulation of female fetuses (OCT3 [2]; 100 µM antidepressant, female placentas): prone to inhibition
